Reference: patent publication US20260265190A1, “AROMATIC COMPOUNDS FOR USE AS PROTEIN PHOSPHATASE 2A (PP2A) MODULATORS” (RAPPTA THERAPEUTICS OY, priority 2022, published 2026)

Tested on: LNCaP cells
Test: Cell viability assay (MTS), LNCaP cell line
Type: cell-based
Conditions: Homo sapiens, 48 hours
Description: LNCaP cell line was used for the cell viability assay. LNCaP cells were plated in 96-well plates at a density of 5000 cells per well. After 24 hours of plating, the cells were treated with increasing doses of compound (e.g., compounds 1-38) ranging from 1 μM to 80 μM. Relative cell numbers were analyzed after 48 hours using 3-(4,5-dimethylthiazol-2-yl)-5-(3-carboxymethoxyphenyl)-2-(4-sulfophenyl)-2H-tetrazolium (MTS) assay (Promega) according to the manufacturer's instructions.
(§1) The cell viability data was analyzed with GraphPad Prism software. The values were log transformed and analyzed with non-linear regression (curve-fit) using log (inhibitor) vs. response—variable slope (four parameters) and constraining the bottom to equal zero. Unless otherwise indicated, the GI50 values provided in Table 1 correspond to the LNCaP cell viability assays.

SMILES | GI50
CC(C)Oc1ccc(S(=O)(=O)NC(CN2CCNCC2)c2ccc(Cl)cc2)cn1 (stereo not shown) [Example 22, N-(1-(4-chlorophenyl)-2-(piperazin-1-yl)ethyl)-6-isopropoxypyridine-3-sulfonamide] | 51.1 µM
CN(C)CC(NS(=O)(=O)c1ccc(Oc2cccc(C(F)(F)F)c2)cc1)c1ccc(Cl)c(Cl)c1 (stereo not shown) [Example 28, N-(1-(3,4-dichlorophenyl)-2-(dimethylamino)ethyl)-4-(3-(trifluoromethyl)phenoxy)benzenesulfonamide] | 14.4 µM
CN(C)CC(c1ccc(Cl)c(Cl)c1)n1cc(-c2ccc(OC(F)(F)F)cc2)cn1 (stereo not shown) [Example 34, 2-(3,4-dichlorophenyl)-N,N-dimethyl-2-(4-(4-(trifluoromethoxy)phenyl)-1H-pyrazol-1-yl)ethan-1-amine] | 54.6 µM
O=S(=O)(NC(c1ccccc1)C1CCNCC1)c1ccc(OC(F)(F)F)cc1 (stereo not shown) [Example 10, N-(phenyl(piperidin-4-yl)methyl)-4-(trifluoromethoxy)benzenesulfonamide] | 20.5 µM
CC(C)Oc1ccc(S(=O)(=O)N[C@H](c2ccc(Cl)cc2)C2CCNCC2)cn1 [Example 17, (S)-N-((4-chlorophenyl)(piperidin-4-yl)methyl)-6-isopropoxypyridine-3-sulfonamide] | 26.4 µM
O=S(=O)(NC1(c2ccccc2)CCC2(CC2)NC1)c1ccc(OC(F)(F)F)cc1 (stereo not shown) [Example 6, N-(6-phenyl-4-azaspiro[2.5]octan-6-yl)-4-(trifluoromethoxy)benzenesulfonamide] | 57.5 µM
O=S(=O)(N[C@@H](c1ccc(Cl)cc1)C1CCNCC1)c1ccc(OC(F)(F)F)cc1 [Example 13, (R)-N-((4-chlorophenyl)(piperidin-4-yl)methyl)-4-(trifluoromethoxy)benzenesulfonamide] | 10 µM
FC(F)(F)Oc1ccc(-c2cn(C3(c4ccc(Cl)cc4)CCNC3)cn2)cc1 (stereo not shown) [Example 36, 1-(3-(4-chlorophenyl)pyrrolidin-3-yl)-4-(4-(trifluoromethoxy)phenyl)-1H-imidazole] | 25.2 µM
O=S(=O)(NC1(c2ccc(Cl)nc2)CCNCC1)c1ccc(OC(F)(F)F)cc1 [Example 3, N-(4-(6-chloropyridin-3-yl)piperidin-4-yl)-4-(trifluoromethoxy)benzenesulfonamide] | 69.9 µM
CNc1cc(S(=O)(=O)NC2(c3ccc(Cl)cc3)CCNCC2)ccc1OC(F)(F)F [Example 8, N-(4-(4-chlorophenyl)piperidin-4-yl)-3-(methylamino)-4-(trifluoromethoxy)benzenesulfonamide] | 25.2 µM
O=S(=O)(NC1(c2cc(F)cc(F)c2)CCNCC1)c1ccc(OC(F)(F)F)cc1 [Example 2, N-(4-(3,5-difluorophenyl)piperidin-4-yl)-4-(trifluoromethoxy)benzenesulfonamide] | 15.5 µM
FC(F)(F)Oc1ccc(-c2cnn(C3(c4ccccc4)CCNC3)c2)cc1 (stereo not shown) [Example 37, 1-(3-phenylpyrrolidin-3-yl)-4-(4-(trifluoromethoxy)phenyl)-1H-pyrazole] | 30.5 µM
CC(C)Oc1ccc(S(=O)(=O)NCC2(c3ccccc3)CC2(C)C)cn1 (stereo not shown) [Example 29, N-((2,2-dimethyl-1-phenylcyclopropyl)methyl)-6-isopropoxypyridine-3-sulfonamide] | 78.7 µM
O=S(=O)(N[C@@H](c1ccccc1)C1CCNCC1)c1ccc(OC(F)(F)F)cc1 [Example 11, (R)-N-(phenyl(piperidin-4-yl)methyl)-4-(trifluoromethoxy)benzenesulfonamide] | 24.7 µM
CN(C)CC(NC(=O)c1ccc(OC(F)(F)F)c([N+](=O)[O-])c1)c1ccc(Cl)c(Cl)c1 (stereo not shown) [Example 32, N-(1-(3,4-dichlorophenyl)-2-(dimethylamino)ethyl)-3-nitro-4-(trifluoromethoxy)benzamide] | 2.1 µM
O=S(=O)(N[C@H](CN1CCC[C@H](F)C1)c1ccc(F)cc1)c1ccc(OC(F)(F)F)cc1 [Example 26, N-((S)-1-(4-fluorophenyl)-2-((S)-3-fluoropiperidin-1-yl)ethyl)-4-(trifluoromethoxy)benzenesulfonamide] | 47.5 µM
O=S(=O)(NC(CN1CCNCC1)c1ccc(F)cc1F)c1ccc(OC(F)(F)F)cc1 (stereo not shown) [Example 20, N-(1-(2,4-difluorophenyl)-2-(piperazin-1-yl)ethyl)-4-(trifluoromethoxy)benzenesulfonamide] | 27.1 µM
O=C(NC1(c2ccc(Cl)cc2)CCNC1)c1ccc(OC(F)(F)F)cc1 (stereo not shown) [Example 33, N-(3-(4-chlorophenyl)pyrrolidin-3-yl)-4-(trifluoromethoxy)benzamide] | 23.3 µM
CC(C)Oc1ccc(S(=O)(=O)N[C@@H](c2ccc(Cl)cc2)C2CCNCC2)cn1 [Example 16, (R)-N-((4-chlorophenyl)(piperidin-4-yl)methyl)-6-isopropoxypyridine-3-sulfonamide] | 23.4 µM
CC(C)Oc1ccc(S(=O)(=O)NC2(c3ccc(F)c(F)c3)CCNCC2)cn1 [Example 7, N-(4-(3,4-difluorophenyl)piperidin-4-yl)-6-isopropoxypyridine-3-sulfonamide] | 36.8 µM
O=S(=O)(Nc1ccc(OC(F)(F)F)cc1)C1(c2ccccc2)CCNCC1 [Example 38, 4-phenyl-N-(4-(trifluoromethoxy)phenyl)piperidine-4-sulfonamide] | 23 µM

Continued, values first:

GI50 | SMILES
11.3 µM | O=S(=O)(N[C@H](c1ccc(Cl)cc1)C1CCNCC1)c1ccc(OC(F)(F)F)cc1 [Example 14, (S)-N-((4-chlorophenyl)(piperidin-4-yl)methyl)-4-(trifluoromethoxy)benzenesulfonamide]
33.8 µM | O=S(=O)(NC(CN1CCNCC1)c1ccc(F)c(F)c1)c1ccc(OC(F)(F)F)cc1 (stereo not shown) [Example 21, N-(1-(3,4-difluorophenyl)-2-(piperazin-1-yl)ethyl)-4-(trifluoromethoxy)benzenesulfonamide]
41.9 µM | CN(C)CC(NC(=O)c1ccc(OC(F)(F)F)cc1)c1ccc(Cl)c(Cl)c1 (stereo not shown) [Example 31, N-(1-(3,4-dichlorophenyl)-2-(dimethylamino)ethyl)-4-(trifluoromethoxy)benzamide]
20.4 µM | CN(C)CC(c1ccc(Cl)c(Cl)c1)n1cnc(-c2ccc(OC(F)(F)F)cc2)c1 (stereo not shown) [Example 35, 2-(3,4-dichlorophenyl)-N,N-dimethyl-2-(4-(4-(trifluoromethoxy)phenyl)-1H-imidazol-1-yl)ethan-1-amine]
6.76 µM | Cc1cc(C2(NS(=O)(=O)c3ccc(OC(F)(F)F)cc3)CCNCC2)ccc1Cl [Example 4, N-(4-(4-chloro-3-methylphenyl)piperidin-4-yl)-4-(trifluoromethoxy)benzenesulfonamide]
27.1 µM | O=S(=O)(N[C@H](c1ccccc1)C1CCNCC1)c1ccc(OC(F)(F)F)cc1 [Example 12, (S)-N-(phenyl(piperidin-4-yl)methyl)-4-(trifluoromethoxy)benzenesulfonamide]
30.8 µM | Nc1cc(S(=O)(=O)NC(CN2CCNCC2)c2ccc(Cl)cc2)ccc1OC(F)(F)F (stereo not shown) [Example 23, 3-amino-N-(1-(4-chlorophenyl)-2-(piperazin-1-yl)ethyl)-4-(trifluoromethoxy)benzenesulfonamide]
28.8 µM | O=S(=O)(NC1(c2cc(Cl)ncc2Cl)CCNCC1)c1ccc(OC(F)(F)F)cc1 [Example 9, N-(4-(2,5-dichloropyridin-4-yl)piperidin-4-yl)-4-(trifluoromethoxy)benzenesulfonamide]
25.7 µM | O=S(=O)(NC1(c2ccc(F)c(F)c2)CCNC1)c1ccc(OC(F)(F)F)cc1 (stereo not shown) [Example 1, N-(3-(3,4-difluorophenyl)pyrrolidin-3-yl)-4-(trifluoromethoxy)benzenesulfonamide]
22.8 µM | CC(C)Oc1ccc(S(=O)(=O)NC(c2cc(Cl)cc(Cl)c2)C2CCCCC2)cn1 (stereo not shown) [Example 30, N-(cyclohexyl(3,5-dichlorophenyl)methyl)-6-isopropoxypyridine-3-sulfonamide]
24.4 µM | O=S(=O)(N[C@H](CN1CC(N2CCC2)C1)c1ccc(F)cc1)c1ccc(OC(F)(F)F)cc1 [Example 27, (S)-N-(2-([1,3′-biazetidin]-1′-yl)-1-(4-fluorophenyl)ethyl)-4-(trifluoromethoxy)benzenesulfonamide]

Tested on: HCC1937 cells
Test: Cell viability assay (MTS), HCC1937 cell line
Type: cell-based
Conditions: Homo sapiens, HCC1937 cell line (footnote a), 48 hours
Description: HCC1937 cells are plated in a 96 well plate format at a density of 10,000 cells per well. After incubation overnight, cells are treated with a compound (e.g., compound 5) at the following concentrations: 80, 40, 20, 10, 5, 2.5, 1.25 μM. Compound concentrations are prepared in RPMI via serial dilutions from a starting stock of 80 mM. Forty-eight (48) hours after compound treatment, cell viability is assessed using the Promega CellTiter 96 aqueous one proliferation assay (Promega G3582, MTS assay) according to manufacturer's protocol.
as §1

SMILES | GI50
CC(C)Oc1ccc(S(=O)(=O)N[C@@H](c2ccccc2)C2CCNCC2)cn1 [Example 18, (R)-6-isopropoxy-N-(phenyl(piperidin-4-yl)methyl)pyridine-3-sulfonamide] | 74.3 µM
CC(C)Oc1ccc(S(=O)(=O)NC(CN2CCNCC2)c2ccc(F)c(F)c2)cn1 (stereo not shown) [Example 24, N-(1-(3,4-difluorophenyl)-2-(piperazin-1-yl)ethyl)-6-isopropoxypyridine-3-sulfonamide] | 27 µM

Second part, the compound after the results:

GI50 | SMILES
74.5 µM | CC(C)Oc1ccc(S(=O)(=O)N[C@H](c2ccccc2)C2CCNCC2)cn1 [Example 19, (S)-6-isopropoxy-N-(phenyl(piperidin-4-yl)methyl)pyridine-3-sulfonamide]
51.4 µM | CC(C)Oc1ccc(S(=O)(=O)NC2(c3ccc(Cl)cn3)CCNCC2)cn1 [Example 5, N-(4-(5-chloropyridin-2-yl)piperidin-4-yl)-6-isopropoxypyridine-3-sulfonamide]
40.6 µM | O=S(=O)(N[C@@H](CN1CCNCC1)c1ccc(Cl)cc1)c1ccccc1 [Example 25, (R)-N-(1-(4-chlorophenyl)-2-(piperazin-1-yl)ethyl)benzenesulfonamide]
